Read-outs that look alike come from different tables or passages of the source.
Assays:
BpSBPMLG = BpSBPMLG (Blautia producta, UniProt A0ABX6JB09); assay: Isothermal titration calorimetry of oligosaccharide binding to BpSBPMLG; parameters: species or system Blautia producta ATCC 27340; conditions: for -TΔS^0 / n (binding stoichiometry) / ΔG^0 / ΔH: ITC at 25 °C, 10 mM sodium phosphate pH 7.0
Experimental: The binding of β-(1,4), β-(1,3), and MLG-oligosaccharides to BpSBPMLG was measured at 25 °C in 10 mM sodium phosphate buffer (pH 7) using a MicroCal PEAQ-ITC (Malvern). The protein was extensively dialyzed against 10 mM sodium phosphate and all glycan ligands were also dissolved in the same buffer to minimize the heat of dilution. 13 injections of an oligosaccharide were titrated on BpSBPMLG present in the sample cell. Various preliminary titration setups were tried by changing amounts of protein (5–100 μM) and ligand (50 μM–10 mM) to get the best experimental conditions. Thermodynamic binding parameters [calculates binding affinity (Kd), stoichiometry (n), enthalpy (ΔH), Gibbs free energy change (ΔG), and entropy (ΔS)] were determined using the MicroCal PEAQ-ITC analysis software.

BpGH94MLG = molecular target: T1, BpGH94MLG (Blautia producta, UniProt A0A7G5MNS2); assay: Phosphorolysis activity of BpGH94MLG on substrates (TLC); format: biochemical, Blautia producta ATCC 27340; conditions: inorganic phosphate, 37 °C
T1 sequence (A0A7G5MNS2 1-804): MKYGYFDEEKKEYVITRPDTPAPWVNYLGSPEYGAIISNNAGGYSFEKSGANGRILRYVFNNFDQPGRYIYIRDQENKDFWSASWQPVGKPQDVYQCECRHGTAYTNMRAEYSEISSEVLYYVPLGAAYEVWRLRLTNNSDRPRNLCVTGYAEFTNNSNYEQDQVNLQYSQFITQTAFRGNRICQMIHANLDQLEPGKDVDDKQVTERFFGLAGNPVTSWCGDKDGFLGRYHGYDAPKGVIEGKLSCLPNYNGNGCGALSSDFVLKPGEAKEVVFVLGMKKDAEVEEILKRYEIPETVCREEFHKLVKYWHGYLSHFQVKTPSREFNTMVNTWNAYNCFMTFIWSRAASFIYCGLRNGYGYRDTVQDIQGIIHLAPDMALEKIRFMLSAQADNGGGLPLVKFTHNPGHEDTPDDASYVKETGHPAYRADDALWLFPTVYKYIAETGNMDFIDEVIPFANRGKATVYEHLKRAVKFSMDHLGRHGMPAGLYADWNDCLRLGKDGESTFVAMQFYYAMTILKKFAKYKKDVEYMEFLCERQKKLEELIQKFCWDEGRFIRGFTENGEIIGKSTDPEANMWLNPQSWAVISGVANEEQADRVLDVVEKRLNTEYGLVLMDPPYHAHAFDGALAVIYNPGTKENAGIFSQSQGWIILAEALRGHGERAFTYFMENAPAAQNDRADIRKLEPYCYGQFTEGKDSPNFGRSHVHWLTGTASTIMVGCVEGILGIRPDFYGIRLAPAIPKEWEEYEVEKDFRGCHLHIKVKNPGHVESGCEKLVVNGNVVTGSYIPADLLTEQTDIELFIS
Experimental: TLC was used for analyzing enzymatic actions. […] Kinetics parameters for BpGH94MLG were determined with G4G3G, G4G4G3G and cellotriose, following a p-hydroxybenzoic acid hydrazide (PAHBAH) reducing sugar assay ([69]).

BpGH16MLG = assay: Initial screening of BpGH16MLG against substrates (TLC); format: biochemical, Blautia producta ATCC 27340; conditions: pH 5.7, 37 °C, 2 h
Experimental: After the appropriate incubation time, the reaction was terminated by boiling (5 min), and generated oligosaccharides were analyzed by thin layer chromatography (TLC). Typically, 1 μl of the reaction mixture was used for TLC analysis. TLC analysis was performed on Silica Gel 60 F254 (Merck), and produced sugars were visualized by spraying TLC with 5% H2SO4 in ethanol, followed by heating.

TaCDP = tested on: TaCDP; parameters: method as in PMID 28687766; conditions: phosphorolytic reaction; cited from earlier work
BpGH3-AR8MLG = BpGH3-AR8MLG (Blautia producta, UniProt A0ABX6J8C8); format: biochemical, Blautia producta ATCC 27340; conditions: PAHBAH assay; 100 mM HEPES pH 6.5, 37 °C
Experimental: 150 μl of a freshly prepared 8:2 mixture of reagent A (50 mM sodium sulfite, 0.3 M 4-hydroxybenzhydrazide and 0.6 M HCl) and reagent B (50 mM trisodium citrate, 10 mM CaCl2, 0.5 M NaOH) were added to 50 μl sample. The reaction cocktail was boiled for 10 min at 100 °C. After the reaction was cooled down, the absorbance was recorded at 410 nm using the SpectraMax i3x multi-mode microplate reader. A calibration curve with different concentrations of glucose (0, 2, 4, 8, 16, 40, 80, 100, 200, 300, and 500 μM) was employed for each experiment to calculate the released amount of glucose (reducing end equivalents). The same samples were also used for control measurement, and the control value was subtracted from test reading prior to calculate kinetics parameters. In all cases, the Km, Vmax, and kcat were analyzed on GraphPad Prism. Three independent replicates were used for each test. TLC analyses were used for understanding the enzymatic degradation profiles of various oligosaccharides.

BpGH16MLG (BPGH16) = assay: Michaelis-Menten kinetics of BpGH16MLG on β-glucans (DNS assay); format: biochemical, Blautia producta ATCC 27340; conditions: native BPGH16; DNS assay; pH 5.7, 37 °C
Experimental: Then, reactions were terminated by boiling for 5 min. Enzymatic assays were determined with 3,5- dinitrosalicylic acid (DNS) assay ([85]). In brief, 0.05 g Na2SO3 and 1 g DNS were mixed in a 50 ml water-containing reagent bottle and stirred about 6 h using a magnetic stirrer. After that, 200 μl phenol was added and made up to 100 ml. A working solution of DNS was prepared by adding 50 μl glucose (20% (w/v) stock) in prepared 100 ml of reagent mixtures and immediately used for experiments without adding NaOH. 80 μl DNS reagent was added to the reaction mixtures and incubated at 100 °C for 10 min, followed by ice-cooling for 10 min. Consequently, recorded the developed color spectrophotometrically at 575 nm ([85]). A standard curve generated by different concentrations of maltose was used for determining released reducing sugars in each case.

BpSBPMLG, sequence (A0ABX6JB09 entry or part of it): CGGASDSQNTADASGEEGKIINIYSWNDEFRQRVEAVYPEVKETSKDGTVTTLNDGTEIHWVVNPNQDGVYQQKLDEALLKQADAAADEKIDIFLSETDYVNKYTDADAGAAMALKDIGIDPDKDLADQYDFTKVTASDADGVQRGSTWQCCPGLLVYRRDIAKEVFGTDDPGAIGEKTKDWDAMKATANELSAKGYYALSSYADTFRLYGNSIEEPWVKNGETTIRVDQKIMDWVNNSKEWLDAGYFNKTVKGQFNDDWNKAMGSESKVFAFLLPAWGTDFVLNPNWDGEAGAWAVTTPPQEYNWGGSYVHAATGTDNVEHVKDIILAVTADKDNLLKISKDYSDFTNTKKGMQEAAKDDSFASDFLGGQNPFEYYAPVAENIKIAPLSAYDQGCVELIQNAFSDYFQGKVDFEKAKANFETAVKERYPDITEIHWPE
BpGH3-AR8MLG, sequence (A0ABX6J8C8 entry or part of it): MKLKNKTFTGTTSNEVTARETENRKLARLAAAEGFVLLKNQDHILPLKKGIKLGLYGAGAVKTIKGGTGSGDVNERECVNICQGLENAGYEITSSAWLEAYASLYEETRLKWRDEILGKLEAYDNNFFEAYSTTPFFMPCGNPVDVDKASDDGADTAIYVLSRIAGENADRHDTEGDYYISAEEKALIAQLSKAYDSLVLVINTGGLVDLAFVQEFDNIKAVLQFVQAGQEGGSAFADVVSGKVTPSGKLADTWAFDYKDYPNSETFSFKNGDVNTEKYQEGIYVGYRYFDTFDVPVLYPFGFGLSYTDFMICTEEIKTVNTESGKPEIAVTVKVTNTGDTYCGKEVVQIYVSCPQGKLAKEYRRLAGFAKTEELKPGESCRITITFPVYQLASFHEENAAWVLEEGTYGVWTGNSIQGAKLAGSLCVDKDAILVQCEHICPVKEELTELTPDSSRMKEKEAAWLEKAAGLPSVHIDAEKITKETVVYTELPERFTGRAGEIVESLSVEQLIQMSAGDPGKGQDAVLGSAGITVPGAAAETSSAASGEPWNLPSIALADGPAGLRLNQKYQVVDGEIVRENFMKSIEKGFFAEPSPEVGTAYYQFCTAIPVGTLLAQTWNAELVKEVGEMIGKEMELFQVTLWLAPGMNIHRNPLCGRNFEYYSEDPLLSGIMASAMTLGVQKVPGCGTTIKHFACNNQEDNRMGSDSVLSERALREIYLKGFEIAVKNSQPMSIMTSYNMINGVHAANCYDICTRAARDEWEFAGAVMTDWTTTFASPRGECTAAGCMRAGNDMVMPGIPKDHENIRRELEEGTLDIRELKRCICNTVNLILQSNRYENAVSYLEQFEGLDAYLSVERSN

Compound | binding to BpSBPMLG (in words) (BpSBPMLG; ITC) | phosphorolysis activity of BpGH94MLG (in words) (BpGH94MLG) | activity of BpGH16MLG on substrate (initial screening) (BpGH16MLG) | Kd (BpSBPMLG) | -TΔS^0 (BpSBPMLG) | n (binding stoichiometry) (BpSBPMLG) | ΔG^0 (BpSBPMLG) | ΔH (BpSBPMLG) | other results
Gentiobiose | no detectable affinity | did not show any phosphorolysis activity | did not show activity |  |  |  |  |  | 
lentinan |  |  | did cleave |  |  |  |  |  | 
OC[C@H]1O[C@@H](O[C@@H]2[C@@H](O)[C@H](O[C@H]3[C@H](O)[C@@H](CO)OC(O)[C@@H]3O)O[C@H](CO)[C@H]2O)[C@H](O)[C@@H](O)[C@@H]1O (some centres unmarked) [Laminaritriose] |  | did not show any phosphorolysis activity | did cleave | 3.41 µM | 3.8 kcal/mol | 0.9 ± 0.01 | -7.46 kcal/mol | -3.66 ± 0.02 kcal/mol | 
O=C[C@H](O)[C@@H](O)[C@H](O[C@@H]1O[C@H](CO)[C@@H](O)[C@H](O)[C@H]1O)[C@H](O)CO [Cellobiose] | some affinity | did not show any phosphorolysis activity | did not show activity | 30.6 µM | 0.8 kcal/mol | 0.78± 0.18 | -6.2 kcal/mol | -7.0 ± 2.2 kcal/mol | Km (TaCDP): 120 µM; kcat (TaCDP): 0.23 s⁻¹; Km (BpGH3-AR8MLG): 200 ± 30 µM; kcat (BpGH3-AR8MLG): 8 ± 0.1 s⁻¹
OC[C@H]1O[C@@H](O[C@@H]2[C@@H](O)[C@H](O[C@@H]3[C@@H](O)[C@H](O[C@H]4[C@H](O)[C@@H](CO)OC(O)[C@@H]4O)O[C@H](CO)[C@H]3O)O[C@H](CO)[C@H]2O)[C@H](O)[C@@H](O)[C@@H]1O (some centres unmarked) [Laminaritetraose] |  |  |  |  | 5.29 kcal/mol |  |  | -0.15 ± 0.12 kcal/mol | Kd (BpSBPMLG; ITC, read-out: Kd): 5600 µM
Oat β-glucan |  |  | did cleave |  |  |  |  |  | Km (BpGH16MLG (BPGH16)): 0.32 ± 0.05 mg/mL; kcat (BpGH16MLG (BPGH16)): 46 ± 0.8 s⁻¹
OC[C@H]1O[C@@H](O[C@H]2[C@H](O)[C@@H](O)[C@H](O[C@H]3[C@H](O)[C@@H](O)[C@H](O[C@H]4[C@H](O)[C@@H](O)C(O)O[C@@H]4CO)O[C@@H]3CO)O[C@@H]2CO)[C@H](O)[C@@H](O)[C@@H]1O (some centres unmarked) [Cellotetraose] |  |  |  | 0.75 µM | 8.25 kcal/mol | 0.45 ± 0.02 | -8.35 kcal/mol | -16.6 ± 0.75 kcal/mol | n (binding stoichiometry) (BpSBPMLG; listed as cellotetraose): 0.45; Km (BpGH3-AR8MLG): 470 ± 60 µM; kcat (BpGH3-AR8MLG): 20 ± 0.2 s⁻¹
OC[C@H]1O[C@@](CO)(O[C@H]2O[C@H](CO)[C@@H](O)[C@H](O)[C@H]2O)[C@@H](O)[C@@H]1O [sucrose] |  | did not show any phosphorolysis activity | did not show activity |  |  |  |  |  | 
OC[C@H]1O[C@H](O[C@H]2[C@H](O)[C@@H](O)[C@H](O)O[C@@H]2CO)[C@H](O)[C@@H](O)[C@@H]1O [maltose] | no detectable affinity | did not show any phosphorolysis activity | did not show activity |  |  |  |  |  | 
yeast β-glucan |  |  | did cleave |  |  |  |  |  | 
OC[C@H]1O[C@@H](O[C@H]2[C@H](O)[C@@H](CO)OC(O)[C@@H]2O)[C@H](O)[C@@H](O)[C@@H]1O (some centres unmarked) [Laminaribiose] | some affinity | did not show any phosphorolysis activity | did not show activity | 22.1 µM |  | 1.03 ± 0.02 | -6.35 kcal/mol | -3.14 ± 0.16 kcal/mol | Km (BpGH3-AR8MLG): 240 ± 30 µM; kcat (BpGH3-AR8MLG): 12 ± 0.2 s⁻¹
OC[C@H]1O[C@@H](O[C@H]2[C@H](O)[C@@H](O)[C@H](O)O[C@@H]2CO)[C@H](O)[C@@H](O)[C@H]1O [lactose] | no detectable affinity |  |  |  |  |  |  |  | 
